The results in this text go back to patent US4814340A, “1,4-diaryl alkane derivatives having insecticidal and acaricidal activity” (priority 1982, dated 1989).

Read-outs that look alike come from different tables or passages of the source.

In series [1] the test system is two-spotted spider mite (adults). Put plainly: Test 4 (Effect on Two-Spotted Spider Mite). Particulars: Tetranychus urticae. It counts as in vivo. How it is done:
(§1) Compounds (a) through (g) described below were tested as comparative compounds in the same manner as the compounds of the present invention. All the tests were doubly carried out. Namely, each result was expressed by an average value of two data.
A kidney bean leaf disc (20 mm in diameter) perforated with a cork borer was placed on water-impregnated absorbent cotton, and thereon 20 adults of two-spotted spider mite were set free, and the resulting set was allowed to stand around the clock. The same dilution of the emulsifiable concentrate of a test compound having a concentration of 200 ppm as used in Test 1 and Test 2, was applied by an applicator having a diameter of 20 cm and a height of 60 cm in an amount of 3 ml. 24 hours after, the number of killed adults was counted.

For series [2], the system named is common cutworm (third-instar larvae). Put plainly: Test 1 (Effect on Common Cutworm). It counts as in vivo. As to conditions: Spodoptera litura. On the procedure: as §1
The emulsifiable concentrate of the test compound, prepared according to the method described in Formulation Example 1, was diluted with water to a specified concentration. Sweet potato leaves were sufficiently immersed in the dilution. The sweet potato leaves were dried and placed in a plastic cup having a diameter of 10 cm, and 10 third-instar larvae of common cutworm were set free in each cup. 48 hours after, the numbers of killed and living larvae were counted and the mortality was calculated.

Series [3] concerns green rice leafhopper (female adults). Nature of the series: Test 2 (Effect on Green Rice Leafhopper). It counts as in vivo. Particulars: Nephotettix cincticeps. How it is done: as §1
Four or five seedlings of paddy rice with three leaves were bundled, and thereon the same dilution of the emulsifiable concentrate as used in Test 1 was sprayed in an amount of 3 ml. The bundle was dried and covered with a metal net cylinder, and 10 female adults of green rice leafhopper were set free in the cylinder. 48 hours after, the number of killed adults was counted.

Series [4] relates to German cockroach (female adults). Put plainly: Test 3 (Effect on German Cockroach). It counts as in vivo, Blatella germanica (German cockroach). As to conditions: Blattella germanica. On the procedure:
as §1
One ml of an acetone solution of a test compound of a specified concentration was poured in a high Petri dish having a diameter of 9 cm and a height of 9 cm. The Petri dish was allowed to stand, and thereby the acetone was evaporated. The upper part of the inner wall of the Petri dish was treated with butter to prevent the adults of German cockroach from escaping from the Petri dish. 10 female adults of German cockroach were set free in each Petri dish. 48 hours after, the number of killed adults was counted.

The subject of series [5] is yearling carps. Put plainly: Test 5 (Fish Toxicity). It counts as in vivo, carp. On the procedure: as §1
A water tank having a width of 60 cm, a length of 30 cm and a height of 40 cm was filled with water, and 10 yearling carps having a body length of about 5 cm were set free in the tank and adapted to the environment in the tank. An acetone solution of a test compound was applied into water so as to become a concentration of 1 or 0.1 ppm in water by adding said acetone solution at a rate of one part by volume per 100 parts by volume of water. 48 hours after, the number of killed and living carps was counted and the effect of a test compound on carps was examined.

Setting [6] is: 1 mg/m^2, 48 hours, female adults, read-out: Mortality (%).
The mark [7] stands for this setting: 5 mg/m^2, 48 hours, female adults, read-out: Mortality (%).
[8] abbreviates: 20 ppm, 48 hours, third-instar larvae, read-out: Mortality (%).
Setting [9] is: 100 ppm, 48 hours, third-instar larvae, read-out: Mortality (%).
Setting [10] is: 20 ppm, 48 hours, female adults, read-out: Mortality (%).
[11] abbreviates: 100 ppm, 48 hours, female adults, read-out: Mortality (%).
Where [12] appears, read: 200 ppm, 24 hours, adults, read-out: Mortality (%).

`COP(=O)(OC)OC=C(Cl)Cl` [(a), 0,0-dimethyl-0-(2,2-dichlorovinyl)phosphate, reference compound]: the mortality at 200 ppm in series [1] (24 h) turned out to be 33%. In series [2] (48 h), this molecule had a mortality at 20 ppm of 0% and a mortality at 100 ppm of 60%.
With `CCOP(=S)(OCC)Oc1ccc(=O)n(-c2ccccc2)n1` [(b), 0,0-diethyl-0-(3-oxo-2-phenyl-2H-pyridazin-6-yl)-phosphorothioate, reference compound], in series [3] (48 h), the mortality at 20 ppm was 90% and the mortality at 100 ppm was 100%. For the same molecule, in series [4] (setting [6]), the mortality at 1 mg/m2 stood at 0%. The mortality at 5 mg/m2 in series [4] (setting [7]) stood at 10%.
With `CCOP(=S)(OCC)Oc1cc(C)nc(C(C)C)n1` [(c), Diazinon, reference compound], in series [3] (48 h), the mortality at 20 ppm came to 10% and the mortality at 100 ppm was found to be 80%. In series [4] (48 h), this molecule yielded a mortality at 1 mg/m2 of 0% and a mortality at 5 mg/m2 of 80%.
In turn, `OC(c1ccc(Cl)cc1)(c1ccc(Cl)cc1)C(Cl)(Cl)Cl` [(e), Kelthane, reference compound] yielded a mortality at 200 ppm in series [1] (24 h) of 100%.
For the molecule `Cc1ccc(C(C)(C)CCCc2cccc(Oc3ccccc3)c2)cc1` [Compound 1, 1-(3-phenoxyphenyl)-4-(4-methylphenyl)-4-methylpentane], the “Mortality(%) 48 Hours After” value in series [5] (0.1 ppm in water) and in series [5] (1 ppm in water) was 0% throughout. The mortality at 20 ppm in series [2] (setting [8]) came to 100%. Further, in series [2] (setting [9]), the mortality at 100 ppm was 100%. Moreover, the mortality at 1 mg/m2 in series [4] (setting [6]) was determined as 80%. For the same molecule, the mortality at 5 mg/m2 in series [4] (setting [7]) came to 100%.
As to `CC(C)(CCCc1cccc(Oc2ccccc2)c1)c1ccc2c(c1)OCO2` [Compound 4, 1-(3-phenoxyphenyl)-4-(3,4-methylenedioxyphenyl)-4-methylpentane], the “Mortality(%) 48 Hours After” value in series [5] (0.1 ppm in water) and in series [5] (1 ppm in water) was 0% each time. For the same molecule, the mortality at 20 ppm in series [2] (setting [8]) worked out at 100%. Further, the mortality at 100 ppm in series [2] (setting [9]) was determined as 100%. The mortality at 1 mg/m2 in series [4] (setting [6]) worked out at 40%. Besides, the mortality at 5 mg/m2 in series [4] (setting [7]) came out at 100%.
`COc1ccc(C(C)(C)CCCc2ccc(F)c(Oc3ccccc3)c2)cc1` [Compound 6, 1-(3-phenoxy-4-fluorophenyl)-4-(4-methoxyphenyl)-4-methylpentane]: the mortality at 20 ppm in series [3] (setting [10]) and in series [2] (setting [8]) was 100% throughout. Further, the mortality at 100 ppm in series [3] (setting [11]) and in series [2] (setting [9]) was 100% each time. Besides, the “Mortality(%) 48 Hours After” value in series [5] (0.1 ppm in water) and in series [5] (1 ppm in water) was 0% in each case. Besides, in series [4] (setting [6]), the mortality at 1 mg/m2 was 100%. The mortality at 5 mg/m2 in series [4] (setting [7]) came out at 100%.
For the molecule `CC(C)(CCCc1cccc(Oc2ccccc2)c1)c1ccc(Cl)cc1` [Compound 8, 1-(3-phenoxyphenyl)-4-(4-chlorophenyl)-4-methylpentane], the figures for the mortality at 20 ppm in series [3] (setting [10]) and in series [2] (setting [8]) were 100% and 95%, respectively. Besides, the mortality at 100 ppm in series [3] (setting [11]) and in series [2] (setting [9]) was 100% in each case. Moreover, the “Mortality(%) 48 Hours After” value in series [5] (0.1 ppm in water) and in series [5] (1 ppm in water) was 0% throughout.
Consider `CC(C)(CCCc1ccc(F)c(Oc2ccccc2)c1)c1ccc(OC(F)F)cc1` [Compound 10, 1-(3-phenoxy-4-fluorophenyl)-4-(4-difluoromethoxyphenyl)-4-methylpentane], for which the mortality at 20 ppm in series [3] (setting [10]) and in series [2] (setting [8]) was 100% in each case. Further, the mortality at 100 ppm in series [3] (setting [11]) and in series [2] (setting [9]) was 100% each time. In addition, the “Mortality(%) 48 Hours After” value in series [5] (0.1 ppm in water) is given as 5%; in series [5] (1 ppm in water), 30%. Besides, the mortality at 1 mg/m2 in series [4] (setting [6]) worked out at 100%. For the same molecule, in series [4] (setting [7]), the mortality at 5 mg/m2 came to 100%.
For the molecule `CC(C)(CCCc1cccc(Oc2ccccc2)c1)c1ccccc1` [Compound 17], the figures for the mortality at 20 ppm in series [3] (setting [10]) and in series [2] (setting [8]) were 95% and 50%, respectively. The mortality at 100 ppm in series [3] (setting [11]) and in series [2] (setting [9]) was 100% throughout. In addition, the “Mortality(%) 48 Hours After” value in series [5] (0.1 ppm in water) and in series [5] (1 ppm in water) was 0% in each case.
With `CC(C)(CCCc1ccc(F)c(Oc2ccccc2)c1)c1ccccc1` [Compound 27], the mortality at 20 ppm in series [3] (setting [10]) and in series [2] (setting [8]) was 100% each time. Further, the mortality at 100 ppm in series [3] (setting [11]) and in series [2] (setting [9]) was 100% in each case. For the same molecule, in series [4] (48 h), the mortality at 1 mg/m2 was determined as 100%. In series [4] (48 h), this molecule gave a mortality at 5 mg/m2 of 100%.
`Cc1ccc(C(C)(C)CCCc2ccc(F)c(Oc3ccccc3)c2)cc1` [Compound 29]: the mortality at 20 ppm in series [2] (setting [8]) came to 100%. The mortality at 100 ppm in series [2] (setting [9]) stood at 100%. Moreover, the mortality at 1 mg/m2 in series [4] (setting [6]) amounted to 100%. For the same molecule, the mortality at 5 mg/m2 in series [4] (setting [7]) was 100%.
On to `CCOc1ccc(C2(CCCc3cccc(Oc4ccccc4)c3)CCC2)cc1` [Compound 31, 1-(3-Phenoxyphenyl)-3-[1-(4-ethoxyphenyl)cyclobutyl]propane], for which the mortality at 20 ppm in series [3] (setting [10]) worked out at 100%. The mortality at 100 ppm in series [3] (setting [11]) worked out at 100%. Also, the mortality at 1 mg/m2 in series [4] (setting [6]) was determined as 100%. Moreover, the mortality at 5 mg/m2 in series [4] (setting [7]) is 100%.
As to `CCOc1ccc(C2(CCCc3ccc(F)c(Oc4ccccc4)c3)CCC2)cc1` [Compound 38, 1-(3-Phenoxy-4-fluorophenyl)-3-[1-(4-ethoxyphenyl)cyclobutyl]propane], in series [3] (setting [10]), the mortality at 20 ppm turned out to be 100%. Moreover, the mortality at 100 ppm in series [3] (setting [11]) worked out at 100%. Also, the “Mortality(%) 48 Hours After” value in series [5] (0.1 ppm in water) and in series [5] (1 ppm in water) was 0% throughout.
In the case of `CCOc1ccc(C(C)(C)CCCc2cccc(Oc3ccc(F)cc3)n2)cc1` [Compound 40], in series [3] (setting [10]), the mortality at 20 ppm amounted to 60%. For the same molecule, in series [3] (setting [11]), the mortality at 100 ppm was found to be 100%. The mortality at 200 ppm in series [1] (setting [12]) was 70%.
For the molecule `CCOc1ccc(C(C)(C)CCCc2cccc(Oc3ccc(F)cc3)c2)cc1` [Compound 41], the mortality at 20 ppm in series [3] (setting [10]) is 100%. Moreover, in series [3] (setting [11]), the mortality at 100 ppm stood at 100%. Moreover, the “Mortality(%) 48 Hours After” value in series [5] (0.1 ppm in water) and in series [5] (1 ppm in water) was 0% each time.
On to `CC(C)(CCCc1cccc(Oc2ccccn2)c1)c1ccc(Cl)cc1` [Compound 43], for which the mortality at 20 ppm in series [3] (setting [10]) worked out at 75%. For the same molecule, in series [3] (setting [11]), the mortality at 100 ppm is 100%. Besides, the mortality at 200 ppm in series [1] (setting [12]) was determined as 60%.
Take `CCOc1ccc(C(C)(C)CCCc2ccc(F)c(Oc3ccc(F)cc3)c2)cc1` [Compound 55]: the mortality at 20 ppm in series [3] (setting [10]) and in series [2] (setting [8]) was 100% in each case. Also, the mortality at 100 ppm in series [3] (setting [11]) and in series [2] (setting [9]) was 100% each time. Besides, the “Mortality(%) 48 Hours After” value in series [5] (0.1 ppm in water) and in series [5] (1 ppm in water) was 0% in each case. Besides, the mortality at 1 mg/m2 in series [4] (48 h) is 100%. Also, in series [4] (48 h), the mortality at 5 mg/m2 amounted to 100%.
As to `COCc1ccc(C(C)(C)CCCc2cccc(Oc3ccccc3)c2)cc1` [Compound 61], in series [3] (setting [10]), the mortality at 20 ppm was 100%. In addition, the mortality at 100 ppm in series [3] (setting [11]) is 100%. In addition, the mortality at 200 ppm in series [1] (setting [12]) turned out to be 93%.
In the case of `CC(C)(CCCc1cccc(Oc2ccccc2)c1)c1ccc(OC(F)(F)C(F)F)cc1` [Compound 65], the mortality at 20 ppm in series [3] (setting [10]) and in series [2] (setting [8]) was 100% throughout. Moreover, the mortality at 100 ppm in series [3] (setting [11]) and in series [2] (setting [9]) was 100% each time. In addition, the mortality at 1 mg/m2 in series [4] (setting [6]) stood at 30%. Further, in series [4] (setting [7]), the mortality at 5 mg/m2 is 95%.
Take `CCOc1ccc(C(C)(C)CCCc2ccc(F)c(Oc3ccc(F)cc3)c2)cc1Cl` [Compound 67]: the mortality at 20 ppm in series [3] (setting [10]) is 100%; in series [2] (setting [8]), 60%. Moreover, the mortality at 100 ppm in series [3] (setting [11]) and in series [2] (setting [9]) was 100% throughout. Besides, the “Mortality(%) 48 Hours After” value in series [5] (0.1 ppm in water) and in series [5] (1 ppm in water) was 0% throughout.
